# Reference: patent EP4371976B1, “IONIZABLE LIPIDS AND LIPID NANOPARTICLES CONTAINING THEREOF” (Certest Biotec, S.L., priority 2022, dated 2024)
# Key:
# Female BALB/c mice = assay: Firefly luciferase expression (total flux, IVIS imaging) in mice after injection of mRNA-loaded LNPs; format: in vivo; conditions: for protein expression in mice (transfection results): Figure 1 legend, LNPs containing RNA
# Method: For in vivo administration, mRNA comprising in the 5' to 3' direction a sequence encoding for luciferase of SEQ ID NO:1, was encapsulated into LNPs following the procedure described in Hassett, K. J. et al., "Optimization of Lipid Nanoparticles for Intramuscular Administration of mRNA Vaccines", 2019, Mol. Ther. Nucleic Acid, vol. 15, pp. 1-11. Briefly, the purified mRNAs were first diluted in sodium citrate buffer at pH=4 at a final concentration of 266 µg/ml. Separately, a mixture of the ionizable lipid of the invention:DSPC (Merk 850365P):cholesterol (Sigma C3045):DMG-PEG2000 (Cayman 33945-1) were dissolved into ethanol at the respective molar percentages of 50:10:38.5:1.5, and with a lipid-nitrogen-to-phosphate ratio (N:P) ratio of 5,5:1.
# The mRNA aqueous solution was then carefully added to the ethanol solution, and the resulted solution was homogenized by pipetting up and down for 4-5 times. The resulting LNPs were immediately diluted 1:1 with Tris buffer and dialyzed overnight against Tris buffer containing 15% sucrose. The resulting LNP solution was then collected, and the encapsulated mRNA was assessed by Quant-IT® Ribogreen (Invitrogen R11490) following the manufacturer's instructions.
# Female BALB/c mice (Charles River Laboratories), 8-10-week-old, weighting 18-23 g, were acclimatized to new conditions upon arrival to experimental facilities for 3-7 days. Housing conditions were room temperature 20-24 °C, humidity 50-70 %, and light intensity 60 lux with a light-dark cycle of 12 hours.
# For Firefly Luciferase activity measurement in mice, LNPs produced as indicated above (ionizable lipid:helper lipid: sterol:PEG-modified lipid → 50:10:38.5:1.5) and containing 5 µg of the indicated mRNA in 50 µl final volume, were injected intramuscularly.
# From 4 to 72 hours after RNA-LPN inoculation mice were anaesthetized by inhalation with 4% of isoflurane using a vaporizer. The maintenance of the anaesthesia was performed at 1.5% of isoflurane. Then, D-luciferin (Quimigen, 12507) was injected intraperitoneally at 150 mg/kg, normally ~200 µL of the stock at 15 mg/mL in PBS for a 20 g mouse. Luciferase images were acquired 10 minutes after luciferin inoculation using the IVIS Lumina XRMS Imaging System following manufacturer's instructions.
# [1] = RNA encapsulation efficiency of LNPs by Quant-IT Ribogreen; format: physicochemical; conditions: for Encaps. efficiency (%): LNPs with luciferase mRNA, ionizable lipid:non-cationic lipid:sterol:PEG-modified lipid 50:10:38.5:1.5, percentage of RNA entrapped in the LNP; for Encaps. efficiency: Table 8, LNP 50:10:38.5:1.5, luciferase mRNA
# In short: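 Ribogreen dye assay per manufacturer quantified encapsulated mRNA. Particles were made by adding mRNA in water to the ethanol phase, then 1:1 Tris dilution and overnight dialysis into Tris/15% sucrose; final mRNA set to 100 µg/ml.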
# [2] = Size distribution, polydispersity and Z-potential of LNPs by dynamic light scattering (Malvern Zetasizer); format: physicochemical; conditions: LNPs, standard formulation 50:10:38.5:1.5; DLS
# Method: The LNP solution was then adjusted to a final concentration of mRNA of 100 µg/ml. Size distribution, polydispersity and Z-potential were measured by dynamic light scattering (DLS) using Malvern Zetasizer Advance Lab Blue Label. RNA encapsulation was assessed by Quant-IT® Ribogreen following the manufacturer's instructions.
# [3] = Apparent pKa of LNPs comprising the ionizable lipid (Table 6); conditions: standard formulation 50:10:38.5:1.5
# [4] = Table 8, mice, intramuscular, 5 µg luciferase mRNA in 50 µl, LNP 50:10:38.5:1.5
# [5] = Table 9, comparative disulfide compounds, tested in vivo
compound,measurement,setting,value
CCCCCCCCCCCCCOC(=O)CCSCCC(C(=O)NC1CCN(C)CC1)C(=O)OC(CCCCCCCC)CCCCCCCC (stereo not drawn) [VC-LC-0441],Total Flux,Female BALB/c mice; [4],2.2E+07 p·s^-1
same,Encaps. efficiency (%),[1],78.30%
same,Encaps. efficiency,[1],78.3%
same,P.D.I.,[2],0.12
same,Particle size/ Ø (nm),[2],186.5 nm
same,Z Potential (± D.E.) [mV],[2],-4.04 mV
CCCCCCCC/C=C\CCCCCCCC(=O)NC(CCSCCC(=O)OCCCCCCCCCCCCC)C(=O)NCCCN(CCO)CCO (stereo not drawn) [VC-LC-0289],protein expression in mice (transfection results),Female BALB/c mice,good transfection results
same,Total Flux,Female BALB/c mice; [4],2.329E+07 p·s^-1
same,Encaps. efficiency (%),[1],89.26%
same,Encaps. efficiency,[1],89.3%
same,P.D.I.,[2],0.2
same,Particle size/ Ø (nm),[2],207.1 nm
same,Z Potential (± D.E.) [mV],[2],-0.34 mV
CCCCCCCCCCCCCOC(=O)CCSCCC(C(=O)NCCCn1ccnc1)C(=O)OC(CCCCCCCC)CCCCCCCC (stereo not drawn) [VC-LC-0362],Total Flux,Female BALB/c mice; [4],3.31E+07 p·s^-1
same,Encaps. efficiency (%),[1],73.55%
same,Encaps. efficiency,[1],73.5%
same,P.D.I.,[2],0.14
same,Particle size/ Ø (nm),[2],121.1 nm
same,Z Potential (± D.E.) [mV],[2],-13.94 mV
CCCCCCCCC(CCCCCC)C(=O)NC(CCSCCC(=O)OCCCCCCCC(C)C)C(=O)NCCCN(C)C (stereo not drawn) [VC-LC-0101],Total Flux,Female BALB/c mice; [4],1.05E+07 p·s^-1
same,Encaps. efficiency (%),[1],96.01%
same,Encaps. efficiency,[1],96.0%
same,Z Potential (± D.E.) [mV],[2],0.00 mV
CCCCCCCCCCCCCCCCCCOC(=O)CCSCCC(NC(=O)C(CCCCCC)CCCCCCCC)C(=O)NC1CCN(C)CC1 (stereo not drawn) [VC-LC-0215],Total Flux,Female BALB/c mice; [4],4.23E+07 p·s^-1
same,Encaps. efficiency (%),[1],58.34%
same,Encaps. efficiency,[1],58.3%
same,Particle size/ Ø (nm),[2],143.5 nm
same,Z Potential (± D.E.) [mV],[2],-13.70 mV
CCCCCCCCCCCCCCCCOC(=O)CCSCC(CC(=O)NCCCN1CCOCC1)C(=O)OC(CCCCCCCC)CCCCCCCC (stereo not drawn) [VC-LC-0547],Total Flux,Female BALB/c mice; [4],1.1E+08 p·s^-1
same,Encaps. efficiency (%),[1],31.52%
same,Encaps. efficiency,[1],31.52%
same,P.D.I.,[2],0.18
same,Particle size/ Ø (nm),[2],168 nm
same,Z Potential (± D.E.) [mV],[2],-13.52 mV
CCCCCCCC/C=C\CCCCCCCC(=O)NC(CCSCCC(=O)OCC(CCCCCCCCCC)CCCCCCCCCCCC)C(=O)NC1CCN(C)CC1 (stereo not drawn) [VC-LC-0356],Total Flux,Female BALB/c mice; [4],3.83E+07 p·s^-1
same,Encaps. efficiency (%),[1],68.27%
same,Encaps. efficiency,[1],68.3%
same,P.D.I.,[2],0.09
same,Particle size/ Ø (nm),[2],218.9 nm
same,Z Potential (± D.E.) [mV],[2],-10.96 mV
CCCCCCCCCCCCCOC(=O)CCSCCC(NC(=O)C(CCCCCCCC)CCCCCCCCCC)C(=O)NCC1CCN(C)CC1 (stereo not drawn) [VC-LC-0507],Total Flux,Female BALB/c mice; [4],2.29E+07 p·s^-1
same,Encaps. efficiency (%),[1],95.15%
same,Encaps. efficiency,[1],95.2%
same,P.D.I.,[2],0.13
same,Particle size/ Ø (nm),[2],151.1 nm
same,Z Potential (± D.E.) [mV],[2],-2.76 mV
CCCCCCCCC(CCCCCCCC)OC(=O)C(CSCCC(=O)OCCCCCC(C)C)CC(=O)NCCCn1ccnc1 (stereo not drawn) [VC-LC-0302],Total Flux,Female BALB/c mice; [4],7.9E+07 p·s^-1
same,Encaps. efficiency (%),[1],40.58%
same,Encaps. efficiency,[1],40.6%
same,P.D.I.,[2],0.13
same,Particle size/ Ø (nm),[2],112.3 nm
same,Z Potential (± D.E.) [mV],[2],-9.30 mV
CCCCCCCCCCCCCOC(=O)CCSCC(CC(=O)NCCCN1CCOCC1)C(=O)OC(CCCCCCCC)CCCCCCCC (stereo not drawn) [VC-LC-0540],Total Flux,Female BALB/c mice; [4],1.3E+08 p·s^-1
same,Encaps. efficiency (%),[1],43.65%
same,Encaps. efficiency,[1],43.65%
same,P.D.I.,[2],0.11
same,Particle size/ Ø (nm),[2],140.3 nm
same,Z Potential (± D.E.) [mV],[2],-8.47 mV
CCCCCCCCCCCCC(CCCCCCCCCC)COC(=O)CCSCC(CC(=O)NCCCN1CCOCC1)C(=O)OC(CCCCCCCC)CCCCCCCC (stereo not drawn) [VC-LC-0553],protein expression in mice (transfection results),Female BALB/c mice,good transfection results
same,Encaps. efficiency (%),[1],36.11%
same,P.D.I.,[2],0.22
same,Particle size/ Ø (nm),[2],196.2 nm
same,Z Potential (± D.E.) [mV],[2],-8.66 mV
CCCCCCCCC(CCCCCC)C(=O)NC(CCSSCCC(NC(=O)C(CCCCCC)CCCCCCCC)C(=O)NCCCN(C)C)C(=O)NCCCN(C)C (stereo not drawn) [VC-LC-0230],Total Flux,Female BALB/c mice; [5],4.47E+05 p·s^-1
CCCCCCCCC(CCCCCC)C(=O)NC(CCSSCCC(NC(=O)C(CCCCCC)CCCCCCCC)C(=O)NCCCN(CCO)CCO)C(=O)NCCCN(CCO)CCO (stereo not drawn) [VC-LC-0237],Total Flux,Female BALB/c mice; [5],3.16E+05 p·s^-1
CCCCCCCCC(CCCCCC)C(=O)NC(CCSSCCC(NC(=O)C(CCCCCC)CCCCCCCC)C(=O)NCCN1CCN(C)CC1)C(=O)NCCN1CCN(C)CC1 (stereo not drawn) [VC-LC-0236],transfection (luminescence) in vivo,"Female BALB/c mice; Figure 2, intramuscular injection, LNP 50:10:38.5:1.5 encapsulating luciferase mRNA",no transfection
same,Total Flux,Female BALB/c mice; [5],5.20E+05 p·s^-1
CCCCCCC#CCCOC(=O)CCSCC(CC(=O)NCCCN1CCOCC1)C(=O)OC(CCCCCCCC)CCCCCCCC (stereo not drawn),Total Flux,"Female BALB/c mice; Table 7A-C, mice, intramuscular, 5 µg luciferase mRNA in 50 µl, LNP ionizable lipid:helper lipid:sterol:PEG-modified lipid 50:10:38.5:1.5","Total flux: 1,4E+08 p·s^-1"
CCCCCCCCCCCCCOC(=O)CCSCCC(NC(=O)C(CCCCCC)CCCCCCCC)C(=O)NCCCn1ccnc1 (stereo not drawn) [VC-LC-0256],Apparent pKa,[3],5.91
same,Encaps. efficiency (%),[1],92.30%
same,P.D.I.,[2],0.12
same,Particle size/ Ø (nm),[2],184.3 nm
same,Z Potential (± D.E.) [mV],[2],-15.91 mV
CCCCCCCCC(CCCCCC)C(=O)NC(CCSCCC(=O)OCCCCCC(C)C)C(=O)NCC1CCN(C)CC1 (stereo not drawn) [VC-LC-0498],Apparent pKa,[3],7.47
same,Encaps. efficiency (%),[1],99.46%
same,P.D.I.,[2],0.15
same,Particle size/ Ø (nm),[2],152.3 nm
same,Z Potential (± D.E.) [mV],[2],1.06 mV
CCCCCCCCCCC(CCCCCCCC)C(=O)NC(CCSCCC(=O)OCCCCCCCC(C)C)C(=O)NCC1CCN(C)CC1 (stereo not drawn) [VC-LC-0509],Apparent pKa,[3],7.60
same,Encaps. efficiency (%),[1],98.62%
same,P.D.I.,[2],0.23
same,Particle size/ Ø (nm),[2],170.1 nm
same,Z Potential (± D.E.) [mV],[2],0.25 mV
CCCCCCCCC(CCCCCCCC)OC(=O)C(CSCCC(=O)OCCCCCCCC(C)C)CC(=O)NCCCN1CCOCC1 (stereo not drawn) [VC-LC-0542],Apparent pKa,[3],6.43
same,Encaps. efficiency (%),[1],33.76%
same,P.D.I.,[2],0.14
same,Particle size/ Ø (nm),[2],156.3 nm
same,Z Potential (± D.E.) [mV],[2],-10.60 mV
CCCCCCCCC(CCCCCC)C(=O)NC(CCSCCC(=O)OCCCCCCCC(C)C)C(=O)NCC1CCN(C)CC1 (stereo not drawn) [VC-LC-0492],Apparent pKa,[3],7.47
same,Encaps. efficiency (%),[1],98.15%
same,P.D.I.,[2],0.16
same,Particle size/ Ø (nm),[2],150.9 nm
same,Z Potential (± D.E.) [mV],[2],0.83 mV
